Reference: PubChem BioAssay AID256 (DTP/NCI, 2004)
Where “and” joins values, the source holds several entries; their conditions need not be identical. Identical values can stand only once. Inconclusive results and toxic doses are left out.

System: CD2F1 mice, L1210 leukemia ip, survival T/C
Assay: NCI In Vivo Anticancer Drug Screen. Data for tumor model L1210 Leukemia (intraperitoneal) in CD2F1 (CDF1) mice
Settings: higher = longer survival
Summary of the method: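 Ratio T/C, where T is the treated-group value and C the vehicle-dosed control value, from mice implanted with a transplantable tumor.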

[1] = endpoint: mean survival time, dose: 100.0 mg/kg/injection, schedule: Q04DX003 (ip), vehicle: Klucel (hydroxypropylcellulose) (HPC)
[2] = endpoint: mean survival time, dose: 200.0 mg/kg/injection, schedule: Q04DX003 (ip), vehicle: Klucel (hydroxypropylcellulose) (HPC)
[3] = endpoint: mean survival time, dose: 400.0 mg/kg/injection, schedule: Q04DX003 (ip), vehicle: Klucel (hydroxypropylcellulose) (HPC)
[4] = endpoint: mean survival time, dose: 100.0 mg/kg/injection, schedule: Q04DX002 (ip), vehicle: saline
[5] = endpoint: mean survival time, dose: 200.0 mg/kg/injection, schedule: Q04DX003 (ip), vehicle: saline with Tween-80
[6] = endpoint: mean survival time, dose: 100.0 mg/kg/injection, schedule: Q01DX001 (ip), vehicle: saline with Tween-80
[7] = endpoint: mean survival time, dose: 200.0 mg/kg/injection, schedule: Q01DX001 (ip), vehicle: saline with Tween-80
[8] = endpoint: mean survival time, dose: 400.0 mg/kg/injection, schedule: Q01DX001 (ip), vehicle: saline with Tween-80
[9] = endpoint: mean survival time, dose: 100.0 mg/kg/injection, schedule: Q01DX009 (ip), vehicle: saline with Tween-80
[10] = endpoint: mean survival time, dose: 200.0 mg/kg/injection, schedule: Q01DX009 (ip), vehicle: saline with Tween-80
[11] = endpoint: mean survival time, dose: 400.0 mg/kg/injection, schedule: Q01DX009 (ip), vehicle: saline with Tween-80
[12] = endpoint: mean survival time, dose: 100.0 mg/kg/injection, schedule: Q04DX003 (ip), vehicle: saline with Tween-80
[13] = endpoint: mean survival time, dose: 400.0 mg/kg/injection, schedule: Q04DX003 (ip), vehicle: saline with Tween-80
[14] = endpoint: mean survival time, dose: 100.0 mg/kg/injection, schedule: Q01DX001 (ip), vehicle: saline
[15] = endpoint: mean survival time, dose: 50.0 mg/kg/injection, schedule: Q01DX009 (ip), vehicle: saline with Tween-80

O=C1OC(=O)c2ccc([N+](=O)[O-])c3cccc1c23
T/C [1]: 98 % of control
T/C [2]: 106 % of control
T/C [3]: 96 % of control

O=C1C=C(SCCO)C(=O)c2ccccc21
T/C (endpoint: mean survival time, dose: 0.63 mg/kg/injection, schedule: Q01DX009 (ip), vehicle: saline sonified): 91 % of control
T/C (endpoint: mean survival time, dose: 1.25 mg/kg/injection, schedule: Q01DX009 (ip), vehicle: saline sonified): 94 % of control
T/C (endpoint: mean survival time, dose: 1.25 mg/kg/injection, schedule: Q04DX003 (ip), vehicle: saline with Tween-80): 92 % of control
T/C (endpoint: mean survival time, dose: 2.5 mg/kg/injection, schedule: Q01DX009 (ip), vehicle: saline sonified): 105 % of control
T/C (endpoint: mean survival time, dose: 2.5 mg/kg/injection, schedule: Q04DX003 (ip), vehicle: saline with Tween-80): 90 % of control

O=C(NCCCl)NC1C(O)OC(CO)C(O)C1O (configuration not stated)
T/C (endpoint: mean survival time, dose: 12.5 mg/kg/injection, schedule: Q01DX009 (ip), vehicle: water): 107 % of control
T/C (endpoint: mean survival time, dose: 25.0 mg/kg/injection, schedule: Q01DX009 (ip), vehicle: water): 107 % of control
T/C (endpoint: mean survival time, dose: 50.0 mg/kg/injection, schedule: Q01DX009 (ip), vehicle: water): 104 % of control
T/C (endpoint: mean survival time, dose: 100.0 mg/kg/injection, schedule: Q01DX009 (ip), vehicle: water): 104 % of control
T/C (endpoint: mean survival time, dose: 200.0 mg/kg/injection, schedule: Q01DX009 (ip), vehicle: water): 105 % of control

NNC(=O)CC(O)(C1CC1)C1CC1
T/C [4]: 112 % of control
T/C (endpoint: mean survival time, dose: 200.0 mg/kg/injection, schedule: Q04DX002 (ip), vehicle: saline): 96 % of control
T/C (endpoint: mean survival time, dose: 400.0 mg/kg/injection, schedule: Q04DX002 (ip), vehicle: saline): 100 % of control

CCCCCC(C(O)C#N)C(O)(C(F)(F)F)C(F)(F)F (configuration not stated)
T/C [1]: 96 % of control
T/C [2]: 96 % of control
T/C [3]: 90 % of control

O=C1CC2OCCC3=CN4CCC56c7ccccc7N1C5C2C3CC46 (configuration not stated)
T/C (endpoint: mean survival time, dose: 1.25 mg/kg/injection, schedule: Q01DX001 (ip), vehicle: other): 116 % of control
T/C (endpoint: mean survival time, dose: 2.5 mg/kg/injection, schedule: Q01DX001 (ip), vehicle: other): 108 % of control

S=C(S)NNc1ccccc1
T/C [5]: 91 % of control

CC1CCC(CC(N)=O)C1(C)C (configuration not stated)
T/C [6]: 97 % of control
T/C [7]: 105 % of control
T/C [8]: 97 % of control

C[N+](C)(C)Cc1ccc([N+](=O)[O-])cc1
T/C (endpoint: mean survival time, dose: 5.0 mg/kg/injection, schedule: Q01DX001 (ip), vehicle: saline): 98 % of control
T/C (endpoint: mean survival time, dose: 10.0 mg/kg/injection, schedule: Q01DX001 (ip), vehicle: saline): 106 % of control
T/C (endpoint: mean survival time, dose: 20.0 mg/kg/injection, schedule: Q01DX001 (ip), vehicle: saline): 101 % of control
T/C (endpoint: mean survival time, dose: 40.0 mg/kg/injection, schedule: Q01DX001 (ip), vehicle: saline): 98 % of control
T/C (endpoint: mean survival time, dose: 80.0 mg/kg/injection, schedule: Q01DX001 (ip), vehicle: saline): 98 % of control

C=C1C(=O)O[C@@H]2C[C@@]3(C)CC(=O)C=C(C)[C@@H]3C[C@H]12
T/C [6]: 101 % of control
T/C [9]: 98 % of control
T/C [7]: 97 % of control
T/C [10]: 98 % of control
T/C [8]: 101 % of control
T/C [11]: 104 % of control

CNC
T/C [4]: 86 % of control

COc1ccc(CCNC(=O)/C=C\C(=O)O)cc1OC
T/C [9]: 106 % of control
T/C [12]: 89 % of control
T/C [10]: 103 % of control
T/C [5]: 103 % of control
T/C [11]: 101 % of control
T/C [13]: 106 % of control

O=Cc1cc2c(c3ccccc13)CCCC2
T/C [9]: 97 % of control
T/C [10]: 98 % of control
T/C [11]: 98 % of control

Cn1c(C(=O)c2ccncc2)cc2ccccc21
T/C [6]: 103 % of control
T/C (endpoint: mean survival time, dose: 100.0 mg/kg/injection, schedule: Q04DX002 (ip), vehicle: saline with Tween-80): 100 % of control
T/C [7]: 103 % of control
T/C (endpoint: mean survival time, dose: 200.0 mg/kg/injection, schedule: Q04DX002 (ip), vehicle: saline with Tween-80): 100 % of control
T/C [8]: 103 % of control
T/C (endpoint: mean survival time, dose: 400.0 mg/kg/injection, schedule: Q04DX002 (ip), vehicle: saline with Tween-80): 95 % of control

CC1(C)CCC(C)(C)c2c1ccc(O)c2Sc1c(O)ccc2c1C(C)(C)CCC2(C)C
T/C [9]: 97 % of control
T/C [12]: 95 % of control
T/C [10]: 89 % of control
T/C [5]: 97 % of control
T/C [11]: 95 % of control
T/C [13]: 91 % of control

CCOC1(C)OC2C(CO)OC(n3ccc4c(N)ncnc43)C2O1 (configuration not stated)
T/C [14]: 111 % of control

Nc1ncnc2c1ncn2C1CC(O)C(O)CO1 (configuration not stated)
T/C [14]: 103 % of control
T/C (endpoint: mean survival time, dose: 200.0 mg/kg/injection, schedule: Q01DX001 (ip), vehicle: saline): 105 % of control
T/C (endpoint: mean survival time, dose: 400.0 mg/kg/injection, schedule: Q01DX001 (ip), vehicle: saline): 105 % of control

NC1CCCN(Cc2ccccc2)C1 (configuration not stated)
T/C (endpoint: mean survival time, dose: 75.0 mg/kg/injection, schedule: Q01DX001 (ip), vehicle: saline): 95 % of control
T/C (endpoint: mean survival time, dose: 150.0 mg/kg/injection, schedule: Q01DX001 (ip), vehicle: saline): 97 % of control
T/C (endpoint: mean survival time, dose: 300.0 mg/kg/injection, schedule: Q01DX001 (ip), vehicle: saline): 97 % of control

COC(=O)[C@@H]1c2cc3c(c(O)c2[C@@H](OC2OC(C)C(OC)C(C)(OC)C2OC)C[C@]1(C)O)C(=O)c1c(O)cc2c(c1C3=O)O[C@H]1O[C@]2(C)[C@H](O)[C@@H](N(C)C)[C@@H]1O (some centres not stated)
T/C (endpoint: mean survival time, dose: 0.25 mg/kg/injection, schedule: Q01DX009 (ip), vehicle: other): 120 % of control and 112 % of control
T/C (endpoint: mean survival time, dose: 0.5 mg/kg/injection, schedule: Q01DX009 (ip), vehicle: other): 116 % of control and 108 % of control
T/C (endpoint: mean survival time, dose: 1.0 mg/kg/injection, schedule: Q01DX009 (ip), vehicle: other): 93 % of control and 110 % of control

NCCNCC(=O)O
T/C (endpoint: mean survival time, dose: 100.0 mg/kg/injection, schedule: Q04DX003 (ip), vehicle: saline): 97 % of control
T/C (endpoint: mean survival time, dose: 200.0 mg/kg/injection, schedule: Q04DX003 (ip), vehicle: saline): 93 % of control
T/C (endpoint: mean survival time, dose: 400.0 mg/kg/injection, schedule: Q04DX003 (ip), vehicle: saline): 97 % of control

O=C(Nc1ccc(S(=O)(=O)N2CCCCC2)cc1)OC(c1ccccc1)c1ccccc1
T/C (endpoint: mean survival time, dose: 5.0 mg/kg/injection, schedule: Q01DX001 (ip), vehicle: other): 103 % of control
T/C (endpoint: mean survival time, dose: 10.0 mg/kg/injection, schedule: Q01DX001 (ip), vehicle: other): 100 % of control
T/C (endpoint: mean survival time, dose: 20.0 mg/kg/injection, schedule: Q01DX001 (ip), vehicle: other): 93 % of control
T/C (endpoint: mean survival time, dose: 40.0 mg/kg/injection, schedule: Q01DX001 (ip), vehicle: other): 100 % of control
T/C (endpoint: mean survival time, dose: 80.0 mg/kg/injection, schedule: Q01DX001 (ip), vehicle: other): 102 % of control

CNC(=O)NC1C(O)C(OC)OC2COC(c3ccccc3)OC21 (configuration not stated)
T/C [12]: 97 % of control
T/C [5]: 97 % of control
T/C [13]: 95 % of control

O=C1c2ccccc2C(=O)N1CN1C(=O)c2ccccc2C1=O
T/C [15]: 93 % of control
T/C [9]: 92 % of control
T/C [10]: 93 % of control

O=C(O)CBr.O=C(O)CBr.[NH-]C1CCCCCCC1[NH-].[Pt+2] (configuration not stated)
T/C (endpoint: mean survival time, dose: 4.68 mg/kg/injection, schedule: Q01DX001 (ip), vehicle: distilled water + Tween-80): 122 % of control
T/C (endpoint: mean survival time, dose: 9.36 mg/kg/injection, schedule: Q01DX001 (ip), vehicle: distilled water + Tween-80): 119 % of control
T/C (endpoint: mean survival time, dose: 18.75 mg/kg/injection, schedule: Q01DX001 (ip), vehicle: distilled water + Tween-80): 161 % of control

O=C(OC(CN1CCCCC1)CN1CCCc2ccccc21)C(O)C(O)C(O)(CO)C(=O)OC(CN1CCCCC1)CN1CCCc2ccccc21 (configuration not stated)
T/C [12]: 95 % of control
T/C [5]: 91 % of control

O=Cc1cccc2ccc3ccccc3c12
T/C (endpoint: median survival time, dose: 50.0 mg/kg/injection, schedule: Q04DX002 (ip), vehicle: saline with Tween-80): 111 % of control
T/C (endpoint: median survival time, dose: 100.0 mg/kg/injection, schedule: Q04DX002 (ip), vehicle: saline with Tween-80): 100 % of control
T/C (endpoint: median survival time, dose: 200.0 mg/kg/injection, schedule: Q04DX002 (ip), vehicle: saline with Tween-80): 111 % of control

CC(C)N(C(C)C)S(=O)(=O)c1ccccc1C(O)(c1ccccc1)c1ccccc1
T/C [9]: 92 % of control
T/C [12]: 94 % of control
T/C [5]: 96 % of control
T/C [13]: 89 % of control

O=C(O)C1C(c2ccccc2)=C(c2ccccc2)c2ccccc21 (configuration not stated)
T/C (endpoint: mean survival time, dose: 25.0 mg/kg/injection, schedule: Q01DX009 (ip), vehicle: saline with Tween-80): 94 % of control
T/C [15]: 93 % of control
T/C [9]: 98 % of control
